target: T1, TBK1 (Homo sapiens, UniProt Q9UHD2); assay: TBK1 protein kinase assay ([γ-33P]ATP filter-plate, IC50 from 10 concentrations); assay type: biochemical; settings: 50 μM ATP, peptide substrate 300 μM, 30 min, 21° C.; read-out: Potency score (TBK1 IC50)
T1 construct: All protein kinases were of human origin and encoded full length proteins, unless indicated otherwise; His6; made in house; host or cells: insect Sf21 cells
T1 sequence (Q9UHD2 1-729): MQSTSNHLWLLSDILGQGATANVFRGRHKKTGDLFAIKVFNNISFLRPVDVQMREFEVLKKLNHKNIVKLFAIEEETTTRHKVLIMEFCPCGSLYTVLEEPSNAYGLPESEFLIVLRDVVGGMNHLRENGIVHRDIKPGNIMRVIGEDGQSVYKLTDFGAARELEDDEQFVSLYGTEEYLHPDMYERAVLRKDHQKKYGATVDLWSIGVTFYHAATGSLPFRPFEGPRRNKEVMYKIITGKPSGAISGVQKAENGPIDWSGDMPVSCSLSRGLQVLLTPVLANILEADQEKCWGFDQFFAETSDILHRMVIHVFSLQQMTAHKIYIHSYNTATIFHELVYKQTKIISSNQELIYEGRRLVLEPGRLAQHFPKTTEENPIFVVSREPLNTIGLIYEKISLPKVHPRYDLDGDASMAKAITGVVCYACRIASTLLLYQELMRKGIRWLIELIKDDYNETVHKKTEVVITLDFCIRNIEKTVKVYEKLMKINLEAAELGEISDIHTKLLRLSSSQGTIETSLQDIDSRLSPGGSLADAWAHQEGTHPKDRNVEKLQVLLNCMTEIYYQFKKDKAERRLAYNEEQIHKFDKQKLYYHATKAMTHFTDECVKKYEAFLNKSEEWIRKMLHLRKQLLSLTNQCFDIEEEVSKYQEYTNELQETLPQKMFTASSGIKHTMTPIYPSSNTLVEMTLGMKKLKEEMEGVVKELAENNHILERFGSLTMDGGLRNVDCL
Excerpt: All protein kinases were of human origin and encoded full length proteins, unless indicated otherwise. They were either expressed as glutathione S-transferase (GST) fusion proteins in Escherichia Coli or as hexahistidine (His6)-tagged proteins in insect Sf21 cells. GST fusion proteins were purified by affinity chromatography on glutathione-Sepharose, and His6-tagged proteins on nickel/nitriloacetate-agarose. The procedures for expressing some of the protein kinases used herein have been detailed previously.^8,9 The following sections outline the DNA vectors synthesised and the procedures used to express and purifying protein kinases that have not been reported previously.
The following kinases were expressed in Sf21 cells: Aurora B and Aurora C, extra-cellular signal-regulated kinase 8 (ERK8), microtubule affinity regulating kinase 3 (MARK3), protein kinase Bα[118-480][S473D], protein kinase Bβ (PKBβ[120-481][S474D], 3-phosphoinositide-dependent protein kinase-1 [52-556] (PDK1[52-556], IKKε, TBK1,
All assays (25.5 μl) were carried out at room temperature (21° C.) and were linear with respect to time and enzyme concentration under the conditions used. Assays were performed for 30 min using Multidrop Micro reagent dispensers (Thermo Electron Corporation, Waltham, Mass. 02454, USA) in a 96-well format. The concentration of magnesium acetate in the assays was 10 mM and the [γ-33P] ATP (800 cpm/pmol) was used at 5, 20 or 50 μM as indicated, in order to be at or below the Km for ATP for each enzyme. Protein kinases assayed at 5 μM ATP were: ERK1, ERK8, PKBα, MARK3, Aurora C. Protein kinases assayed at 20 μM ATP were: JNK1, PDK1, CHK1, CHK2, CDK2 and Aurora B. Protein kinases assayed at 50 μM ATP were: MNK2, IKKepsilon and TBK1.
The assays were initiated with MgATP, stopped by addition of 5 μl of 0.5 M orthophosphoric acid and spotted on to P81 filterplates using a unifilter harvester (PerkinElmer, Boston, Mass. 02118, USA). The IC50 values of inhibitors were determined after carrying out assays at 10 different concentrations of each compound.
ERK1 and ERK8 were both assayed against myelin basic protein (MBP, 0.33 mg/ml). MARK3 was assayed against the peptide […] (300 μM), MNK2 against the eIF4E protein (0.5 mg/ml). PKBβ was assayed against the peptide GRPRTSSFAEGKK (30 μM). TBK1 were assayed against ([…]) (300 μM). The substrates used for other protein kinases were described previously.^8,9
Unless stated otherwise, enzymes were diluted in 50 mM Tris/HCl pH 7.5, 0.1 mM EGTA, 1 mg/ml BSA, 0.1% (v/v) 2-mercaptoethanol and assayed in 50 mM Tris/HCl pH 7.5, 0.1 mM EGTA, 0.1% (v/v) 2-mercaptoethanol.

IC50	SMILES
100 to 1000 nM	O=C(NCCCn1ccc2cnc(Nc3cccnc3)nc21)c1cccs1 [Example 12, Thiophene-2-carboxylic acid {3-[2-(pyridin-3-ylamino)-pyrrolo[2,3-d]pyrimidin-7-yl]-propyl}-amide]
1000 to 10000 nM	O=C(NCCCn1ccc2cnc(Nc3cccc(C(F)(F)F)c3)nc21)c1cccs1 [Example 13, Thiophene-2-carboxylic acid {3-[2-(3-trifluoromethyl-phenylamino)-pyrrolo[2,3-d]pyrimidin-7-yl]-propyl}-amide]
100 to 1000 nM	O=C(NCCCn1ccc2cnc(Nc3cccc(NC(=O)N4CCCC4)c3)nc21)c1cccs1 [Example 14, Pyrrolidine-1-carboxylic acid [3-(7-{3-[(thiophene-2-carbonyl)-amino]-propyl}-7H-pyrrolo[2,3-d]pyrimidin-2-ylamino)-phenyl]-amide]
< 100 nM	O=C(NCCCn1ccc2cnc(Nc3ccc(C(=O)N4CCOCC4)cc3)nc21)C1CCC1 [Example 15, Cyclobutanecarboxylic acid (3-{2-[4-(morpholine-4-carbonyl)-phenylamino]-pyrrolo[2,3-d]pyrimidin-7-yl}-propyl)-amide]
< 100 nM	O=C(NCCCn1ccc2cnc(Nc3ccc(N4CCOCC4)nc3)nc21)C1CCCC1 [Example 16, Cyclopentanecarboxylic acid {3-[2-(6-morpholin-4-yl-pyridin-3-ylamino)-pyrrolo[2,3-d]pyrimidin-7-yl]-propyl}-amide]
100 to 1000 nM	O=C(NCCCn1ccc2cnc(Nc3ccc(N4CCOCC4)nc3)nc21)c1cnccn1 [Example 17, Pyrazine-2-carboxylic acid {3-[2-(6-morpholin-4-yl-pyridin-3-ylamino)-pyrrolo[2,3-d]pyrimidin-7-yl]-propyl}-amide]
100 to 1000 nM	O=C(CC1CC1)NCCCn1ccc2cnc(Nc3ccc(N4CCOCC4)nc3)nc21 [Example 18, 2-Cyclopropyl-N-{3-[2-(6-morpholin-4-yl-pyridin-3-ylamino)-pyrrolo[2,3-d]pyrimidin-7-yl]-propyl}-acetamide]
100 to 1000 nM	CC(C)CC(=O)NCCCn1ccc2cnc(Nc3ccc(N4CCOCC4)nc3)nc21 [Example 19, 3-Methyl-N-{3-[2-(6-morpholin-4-yl-pyridin-3-ylamino)-pyrrolo[2,3-d]pyrimidin-7-yl]-propyl}-butyramide]
< 100 nM	O=C(NCCCn1ccc2cnc(Nc3ccc(N4CCOCC4)nc3)nc21)C1CCOC1 (stereo not shown) [Example 20, Tetrahydro-furan-3-carboxylic acid {3-[2-(6-morpholin-4-yl-pyridin-3-ylamino)-pyrrolo[2,3-d]pyrimidin-7-yl]-propyl}-amide]
100 to 1000 nM	O=C(NCCCn1ccc2cnc(Nc3ccc(N4CCOCC4)nc3)nc21)c1cncs1 [Example 21, Thiazole-5-carboxylic acid {3-[2-(6-morpholin-4-yl-pyridin-3-ylamino)-pyrrolo[2,3-d]pyrimidin-7-yl]-propyl}-amide]
100 to 1000 nM	O=C(NCCCn1ccc2cnc(Nc3ccc(N4CCOCC4)nc3)nc21)C1CC1 [Example 22, Cyclopropanecarboxylic acid {3-[2-(6-morpholin-4-yl-pyridin-3-ylamino)-pyrrolo[2,3-d]pyrimidin-7-yl]-propyl}-amide]
1000 to 10000 nM	CC(C)C(=O)NCCCn1ccc2cnc(Nc3ccc(N4CCOCC4)nc3)nc21 [Example 23, N-{3-[2-(6-Morpholin-4-yl-pyridin-3-ylamino)-pyrrolo[2,3-d]pyrimidin-7-yl]-propyl}-isobutyramide]
100 to 1000 nM	O=C(NCCCn1ccc2cnc(Nc3ccc(N4CCOCC4)nc3)nc21)C1CCCCC1 [Example 24, Cyclohexanecarboxylic acid {3-[2-(6-morpholin-4-yl-pyridin-3-ylamino)-pyrrolo[2,3-d]pyrimidin-7-yl]-propyl}-amide]
100 to 1000 nM	O=C(CC1CCCC1)NCCCn1ccc2cnc(Nc3ccc(N4CCOCC4)nc3)nc21 [Example 25, 2-Cyclopentyl-N-{3-[2-(6-morpholin-4-yl-pyridin-3-ylamino)-pyrrolo[2,3-d]pyrimidin-7-yl]-propyl}-acetamide]

The remaining lines, values behind:

SMILES	IC50
Cn1ncc2cc(Nc3ncc4ccn(CCCNC(=O)C5CCC5)c4n3)ccc21 [Example 1, Cyclobutanecarboxylic acid {3-[2-(1-methyl-1H-indazol-5-ylamino)-pyrrolo[2,3-d]pyrimidin-7-yl]propyl}-amide]	< 100 nM
Cn1ncc2ccc(Nc3ncc4ccn(CCCNC(=O)C5CCC5)c4n3)cc21 [Example 2, Cyclobutanecarboxylic acid {3-[2-(1-methyl-1H-indazol-6-ylamino)-pyrrolo[2,3-d]pyrimidin-7-yl]-propyl}-amide]	< 100 nM
O=C(NCCCn1ccc2cnc(Nc3ccc(N4CCOCC4)cc3)nc21)C1CCC1 [Example 3, Cyclobutanecarboxylic acid {3-[2-(4-morpholin-4-yl-phenylamino)-pyrrolo[2,3-d]pyrimidin-7-yl]-propyl}-amide]	< 100 nM
CN1CCN(c2ccc(Nc3ncc4ccn(CCCNC(=O)C5CCC5)c4n3)cc2)CC1 [Example 4, Cyclobutanecarboxylic acid (3-{2-[4-(4-methyl-piperazin-1-yl)-phenylamino]-pyrrolo[2,3-d]pyrimidin-7-yl}-propyl)-amide]	< 100 nM
CN(C)Cc1ccc(Nc2ncc3ccn(CCCNC(=O)C4CCC4)c3n2)cc1 [Example 5, Cyclobutanecarboxylic acid {3-[2-(4-dimethylaminomethyl-phenylamino)-pyrrolo[2,3-d]pyrimidin-7-yl]-propyl}-amide]	< 100 nM
O=C(NCCCn1ccc2cnc(Nc3cccc(CN4CCCC4)c3)nc21)C1CCC1 [Example 6, Cyclobutanecarboxylic acid {3-[2-(3-pyrrolidin-1-ylmethyl-phenylamino)-pyrrolo[2,3-d]pyrimidin-7-yl]-propyl}-amide]	< 100 nM
O=C(NCCCn1ccc2cnc(Nc3cccc(-c4cnco4)c3)nc21)C1CCC1 [Example 7, Cyclobutanecarboxylic acid {3-[2-(3-oxazol-5-yl-phenylamino)-pyrrolo[2,3-d]pyrimidin-7-yl]-propyl}-amide]	< 100 nM
Cn1cc(Nc2ncc3ccn(CCCNC(=O)C4CCC4)c3n2)cn1 [Example 8, Cyclobutanecarboxylic acid {3-[2-(1-methyl-1H-pyrazol-4-ylamino)-pyrrolo[2,3-d]pyrimidin-7-yl]-propyl}-amide]	< 100 nM
O=C(NCCCn1ccc2cnc(Nc3cnn(CCN4CCOCC4)c3)nc21)C1CCC1 [Example 9, Cyclobutanecarboxylic acid (3-{2-[1-(2-morpholin-4-yl-ethyl)-1H-pyrazol-4-ylamino]-pyrrolo[2,3-d]pyrimidin-7-yl}-propyl)-amide]	100 to 1000 nM
O=C(NCCCn1ccc2cnc(Nc3cccc(F)c3)nc21)c1cccs1 [Example 10, Thiophene-2-carboxylic acid {3-[2-(3-fluoro-phenylamino)-pyrrolo[2,3-d]pyrimidin-7-yl]-propyl}-amide]	< 100 nM
N#Cc1cccc(Nc2ncc3ccn(CCCNC(=O)c4cccs4)c3n2)c1 [Example 11, Thiophene-2-carboxylic acid {3-[2-(3-cyano-phenylamino)-pyrrolo[2,3-d]pyrimidin-7-yl]-propyl}-amide]	100 to 1000 nM
